Results on one molecule are retold here after EP0739894A1, “THIAZOLINE DERIVATIVE” (TAISHO PHARMACEUTICAL CO. LTD, priority 1994, dated 1995).

≈ marks a conversion by molar mass, not a printed value.

A short description of series [1]: Stability test in phosphate buffer, decomposition rate constants extrapolated to 25°C. Particulars: phosphate buffer adjusted to pH 4.0, 20 µg/ml; estimated from rate constants of decomposition at 100°C and 65°C. The class given is physicochemical. As to the method:
(§1) Solubility and stability tests were carried out according to the method of R.H. Blythe et al [J. Pharm. Sci., vol. 66, page 785 (1977)].
A phosphate buffer (pH 7) (0.1M disodium hydrogenphosphate + 0.1M sodium dihydrogenphosphate) was prepared, and adjusted to pH 4.0 with phosphoric acid. Compound 3 was added to the buffered solution at the concentration of 20 µg/ml, and which was used as a test solution. The content of Compound 3 in the test solution stored at 100°C and 65°C respectively was determined, and the rate constant of decomposition at each temperature was calculated. As a result, it was estimated that the term for remaining a 95% content of Compound 3 at 25°C was 17.6 years.

A short description of series [2]: Solubility test in Britton-Robinson buffered solution, HPLC. The class given is physicochemical. Particulars: britton-robinson buffer, aqueous buffer; Britton - Robinson broad buffered solution pH 4, ionic strength 0.125, 25°C. The method, then:
as §1
A Britton - Robinson broad buffered solution (pH 4) was prepared, and adjusted to 0.125 of the ionic strength by adding sodium chloride. An excess amount of Compound 3 was added to the resulting solution and dissolved with heating, and then after stirring at 25°C for a desired time, the solubility which became constant was measured by HPLC under the following conditions. • Column : TSK-Gel, ODS-80TM, 4φ × 150 mm • Column temperature : 50°C • Mobile phase : Water : CH3CN : SDS : phosphoric acid = 500:500:3:1 • Detection wave length : 246 nm • Flow rate : 1.0 ml/min. • Injection amount : 10 µl

Another series relates to blood platelet. Kind of series: Human in vitro blood platelet aggregation inhibition test (ADP-induced, PRP). Particulars: 0.05 h. It is filed as cell-based. As to the method: Citrated blood (the volume ratio of 3.13 % sodium citrate solution and blood is 1:9) was collected from the cubital vein of a healthy human who had not received any drugs known to affect the function of blood platelet within 2 weeks prior to starting the test, and centrifuged at 120 x g at room temperature for 15 minutes. The resulting supernatant was separated to give platelet rich plasma (PRP), the remaining precipitate was further centrifuged at 1500 x g for 10 minutes, and the resulting supernatant was separated to give platelet poor plasma (PPP).
The blood platelet counts of PRP were adjusted to 50 ∼ 60 × 10^4/µl by diluting with PPP.
Blood platelet aggregation was determined according to the method of Born G.V.R., [Nature, vol. 194, page 927 (1962)] using adenosine diphosphate (produced by Sigma Co.; hereinafter referred to as "ADP") as an aggregation-inducing substance. That is, a solution of the compound of Formula (I) as a test drug in dimethyl sulfoxide was adjusted to the desired concentration with a physiological saline solution. 25 µl of the solution was added to 250 µl of PRP and incubated at 37°C for 3 minutes, and 25 µl of ADP (final concentration : 7 µM) was added thereto. […]

As for `Cc1c(C(=O)NCCC(=O)O)sc(=NC(=O)c2ccc(C(=N)N3CCN(c4ccccn4)CC3)cc2)n1C` [Compound 3, N-(2-Carboxyethyl)-2-{4-[4-(pyridin-2-yl)piperadinylimidoyl]benzoylimino}-3,4-dimethyl-3H-thiazoline-5-carboxamide], the “term for remaining a 95% content at 25°C” value in series [1] was 17.6 years. The concentration in solution in series [2] (solubility) was 4300 µg/mL (≈ 8.03 mM). The same molecule came in with a half-inhibitory concentration (IC50) in the series on blood platelet of 21.5 nM.
